# From patent publication US8691183B2, “Means for the detection and treatment of prostate cells” (Eberhard-Karls-Universitaet Tuebingen Universitaetsklinikum, priority 2008, dated 2014)
# Tests used:
# [1] = Tolerability in the animals; format: in vivo; conditions: intraperitoneal injection, nude mice
# [2] = system: healthy human epithelial prostate cells (CC2555); assay: Confocal laser scanning microscopy (CLSM) of cellular uptake; format: cell-based; conditions: 20 minutes incubation, 10 μg/ml
# Description: (§1) The cells were grown to 80% confluency at 37° C., 5% CO2 (vol/vol) in 4-well plates (NUNC, Wiesbaden, Germany) with about 300,000 cells per well.
# (§2) U373 human glioma cells, human prostate carcinoma cells PC3 and LNCaP, human Jurkat lymphoma cells, and human colon carcinoma cells Colo205 were grown in RPMI1640 ready mix medium containing L-glutamine and 10% fetal bovine serum (FBS)-gold (PAA Laboratories, Pasching, Austria). U2OS human osteosarcoma cells and HeLa human cervix carcinoma cells were grown in high glucose Dulbeccos modified Eagle's medium containing GlutaMax™ and pyrovate and 10% FBS-gold. Healthy human prostate cells (CC2555, Lonza, Verviers, Belgium) were cultivated in prostate endothelial cell growth medium (PrEGM, Lonza, Verviers, Belgium).
# The compounds 1, 2 and 4 were dissolved at 1 mg/ml in pure ethanol (Riedel de Haen, Sigma-Aldrich, Taufkirchen, Germany) and then diluted in the appropriate medium for the cells to 10 μg/ml of conjugate and 1% ethanol. The cells were incubated at 37° C. in an atmosphere of 5% CO2 for 20 minutes with the compounds. […]
# (§3) The confocal laser scanning microscopy was performed on an inverted LSM510 laser scanning microscope (Carl Zeiss) (objective: LD Achroplan 40×0.6, Plan Neofluar 20×0.50, 40×0.75). For the rhodamine fluorescence excitation the 543 nm beam of a helium-neon laser with suitable beam splitters and barrier filters were used. […]
# [3] = system: human prostate carcinoma (PC3) implanted into nude mice; assay: CLSM of frozen sections of implanted tumor after intraperitoneal injection; format: in vivo, nude mouse
# Description: (§4) PC3 and LNCaP prostate tumor cells were grown to 80% confluency, detached with Accutase™ (PAA Laboratories, Pasching, Austria) and then harvested. The cells were washed with PBS three times and then drawn up into a 30 g Micro-Fine™ insulin syringe (Becton Dickinson, Franklin Lakes, N.J., USA). Approximately 5×10^5 cells per mouse were injected into the right thigh of a male CD1 Nu/Nu mouse (Charles River, WIGA, Sulzfeld, Germany). The tumor growth was monitored and after 10 to 14 days mice bearing tumors with 2-3 mm in diameter were treated with the conjugate. 1.5 mg of the compound 1 were dissolved in 300 μl PBS containing 20% ethanol and applied intraperitoneally. After 90 minutes of circulation the mice were sacrificed and subsequently the tumors and organs were removed, embedded in Jung tissue freezing medium (Leica Instruments, Nussloch, Germany) and frozen in liquid nitrogen. Frozen sections (5 μm thickness) were prepared (LD3000 Cryotom, Leica Biosystems GmbH, Nussloch, Germany) and the rhodamine staining was analyzed by confocal laser scanning
# To evaluate the in- and efflux of the rhodamine conjugated compound 1, the experiment was repeated with circulation times of 20 minutes and 180 minutes.
# (§5) The experiments were repeated two times.
# PC3 prostate carcinoma = assay: Touch prints of the tumor after intraperitoneal injection; format: in vivo, nude mouse; conditions: 20 minutes after intraperitoneal injection; no fixation
# Description: For touch prints, the tumor of a mouse treated with the rhodamine containing compound 1 (1.5 mg intraperitoneally for 20 minutes) was excised. The tumor was cut and the cells were streaked onto a slide without fixation. The tumor cells were immediately analyzed by CLSM (without fixation).
# as §5
# nude mice organs = assay: CLSM of frozen sections of nude mice organs after intraperitoneal injection; format: in vivo, nude mouse; conditions: 90 minutes after intraperitoneal injection
# Description: as §4, §5
# [4] = system: LNCaP prostate carcinoma cells; assay: Confocal laser scanning microscopy (CLSM) of cellular uptake; format: cell-based, human; conditions: 20 minutes incubation, 10 μg/ml
# Description: as §1, §2
# (§6) The compounds 1, 2 and 4 were dissolved at 1 mg/ml in pure ethanol (Riedel de Haen, Sigma-Aldrich, Taufkirchen, Germany) and then diluted in the appropriate medium for the cells to 10 μg/ml of conjugate and 1% ethanol. The cells were incubated at 37° C. in an atmosphere of 5% CO2 for 20 minutes with the compounds. After this, the cells were rinsed three times with medium and then incubated with medium again. This experiment was also performed with free sulforhodamine B with a corresponding amount.
# (§7) The confocal laser scanning microscopy was performed on an inverted LSM510 laser scanning microscope (Carl Zeiss) (objective: LD Achroplan 40×0.6, Plan Neofluar 20×0.50, 40×0.75). For the rhodamine fluorescence excitation the 543 nm beam of a helium-neon laser with suitable beam splitters and barrier filters were used. All measures were performed at least three times on living, non-fixed cells.
# [5] = system: non-prostate tumor cell lines (colo 205 colon carcinoma, U373 glioma, U2OS osteosarcoma, HeLa cervix carcinoma, jurkat lymphoma); assay: as above; format: cell-based, human; conditions: all other (non-prostate) tumor cells; 20 minutes incubation; 10 μg/ml
# Description: as §1, §2, §6, §7
# [6] = system: PC-3 prostate carcinoma cells; assay: as above; format: cell-based, human; conditions: 20 minutes incubation, 10 μg/ml
# Description: as §1, §2, §6
# The compound 10 was dissolved in culture medium (260 μM). Lys(FITC)-aminobourgeonal (compound 7) was dissolved in culture medium with 1% ethanol (260 μM). The cells were incubated for 20 minutes (compound 10) and for 2 days (compounds 7 and 10). This assay was also performed with free FITC. After the incubation the cells were rinsed three times with medium and again incubated in medium. Propidium iodide (PI) (molecular probes, Eugene, Oreg., USA) was added to stain death cells.
# as §3
smiles,measurement,setting,value
"CCN(CC)c1ccc2c(-c3ccc(S(=O)(=O)NCCCCCCCCCCC=O)cc3S(=O)(=O)O)c3ccc(=[N+](CC)CC)cc-3oc2c1 [compound 1, sulforhodamine-sulfonamido-aminoundecylic aldehyde]",tolerability,[1],very well tolerated by the animals
same,"uptake into the cells (rhodamine staining, CLSM)",[2],take up the compound according to the invention into the cytoplasm
same,absorption into the cytoplasm of the prostate carcinoma cells,[3]; 20 minutes after intraperitoneal injection,very well absorbed
same,rhodamine fluorescence of the prostate carcinoma in frozen sections,"[3]; 90 minutes after intraperitoneal injection, in comparison to lymph nodes and lung",significantly stronger red fluorescence
same,compound in the cytoplasm of the prostate carcinoma cells,[3]; 180 minutes after intraperitoneal injection,efflux of the compound out of the cytoplasm
same,compound in tumor cells of touch prints,PC3 prostate carcinoma,reached the cytoplasm of the prostate carcinoma cells
same,staining of healthy prostate tissue of the mouse,nude mice organs,almost no staining
same,"uptake into the cells (rhodamine staining, CLSM)",[4],take up the compound according to the invention into the cytoplasm
same,"uptake into the cells (rhodamine staining, CLSM)",[5],do not take up the compound according to the invention
same,"uptake into the cells (rhodamine staining, CLSM)",[6],take up the compound according to the invention into the cytoplasm
